Test results as given in ChEMBL document CHEMBL1151002, “Potent, selective, water-soluble benzodiazepine-based CCKB receptor antagonists that contain lipophilic carboxylate surrogates” (Bioorg Med Chem Lett, 1995).
Converted amounts (≈) assume the structure as drawn.

Columns and labels:
[1] = Solubility at a pH 7.4; assay type: physicochemical; details: buffer, read-out: S
[2] = Ratio between CCKB and CCKA receptor binding affinity was measured by displacement of [125I]CCK from guinea pig cortical membranes and rat pancreatic tissues respectively
[3] = Log D is the log of the ratio of concentrations in each phase obtained from partitioning between octanol and 100 mM KH2PO4 buffer at pH 7.4.; assay type: physicochemical; details: octanol/100 mM KH2PO4 buffer
[4] = Compound was evaluated for its solubility at a pH 7.4; assay type: ADME; details: buffer
Rattus norvegicus [5] = test: Compound was evaluated for its penetration into blood-brain barrier measured by its level in rat brain after an intravenous dose of 3 mg/kg after 1 min; assay type: functional, organism-based; parameters: dose 3 mg/kg
Rattus norvegicus [6] = test: Compound was evaluated for its penetration into blood-brain barrier measured by its level in rat brain after an intravenous dose of 3 mg/kg after 30 min; assay type: functional, organism-based; parameters: dose 3 mg/kg
Rattus norvegicus [7] = test: Compound was evaluated for its penetration into blood-brain barrier measured by its level in rat brain after an intravenous dose of 3 mg/kg after 10 min; assay type: functional, organism-based; parameters: dose 3 mg/kg
[8] = Oral bioavailability in rat; assay type: ADME, organism-based; details: in vivo, read-out: Bioavailabiility
Rattus norvegicus [9] = species: Rattus norvegicus; test: In vitro antagonistic activity for single-cell firing in a slice preparation of the rat ventromedial hyphalamic nucleus; assay type: functional

SMILES | solubility [1] | Selectivity [2] | logD [3] | other results
CN1C(=O)[C@H](NC(=O)Nc2cccc(C(=O)NS(=O)(=O)c3ccccc3)c2)N=C(C2CCCCC2)c2ccccc21 | 370 µg/mL (≈ 645 µM) | > 8000 |  | 
Cc1cccc(NC(=O)N[C@@H]2N=C(C3CCCCC3)c3ccccc3N(C)C2=O)c1 | < 0.01 µg/mL | 6500 | > 4 | 
CN1C(=O)C(NC(=O)Nc2cccc(C(=O)NS(C)(=O)=O)c2)N=C(C2CCCCC2)c2ccccc21 (stereo not given) |  |  | 0.34 | solubility [4]: 1300 µg/mL (≈ 2540 µM); Level (Rattus norvegicus [5]): 836 ng/g; Level (Rattus norvegicus [6]): 91 ng/g; Level (Rattus norvegicus [7]): 344 ng/g
CC(C)S(=O)(=O)NC(=O)c1cccc(NC(=O)N[C@@H]2N=C(C3CCCCC3)c3ccccc3N(C)C2=O)c1 | 1160 µg/mL (≈ 2150 µM) |  |  | 
CN1C(=O)C(NC(=O)Nc2cccc(S(=O)(=O)NC(=O)c3ccccc3)c2)N=C(C2CCCCC2)c2ccccc21 (stereo not given) | 50 µg/mL (≈ 87.2 µM) |  | 1.78 | bioavailability [8]: 14%; Level (Rattus norvegicus [5]): 222 ng/g; Level (Rattus norvegicus [6]): 72 ng/g; Level (Rattus norvegicus [7]): 120 ng/g; Kb (Rattus norvegicus [9]): 1.2 nM
Cc1ccccc1S(=O)(=O)NC(=O)c1cccc(NC(=O)N[C@@H]2N=C(C3CCCCC3)c3ccccc3N(C)C2=O)c1 | 410 µg/mL (≈ 698 µM) |  | 2 | 
CN1C(=O)C(NC(=O)Nc2cccc(C(=O)O)c2)N=C(C2CCCCC2)c2ccccc21 (stereo not given) | 1050 µg/mL (≈ 2420 µM) | 2 | 0.89 | 
CN1C(=O)C(NC(=O)Nc2cccc(C(=O)NS(=O)(=O)c3ccccc3)c2)N=C(C2CCCCC2)c2ccccc21 (stereo not given) |  | 19 | 1.42 | 
CC(C)S(=O)(=O)NC(=O)c1cccc(NC(=O)NC2N=C(C3CCCCC3)c3ccccc3N(C)C2=O)c1 (stereo not given) | 740 µg/mL (≈ 1370 µM) |  | 0.85 | 
CC(=O)NS(=O)(=O)c1cccc(NC(=O)NC2N=C(C3CCCCC3)c3ccccc3N(C)C2=O)c1 (stereo not given) | 260 µg/mL (≈ 508 µM) | 53 | 0.72 | 
